This note sets out measurements from article PMC10485906, “Development of a Dihydroquinoline–Pyrazoline GluN2C/2D-Selective Negative Allosteric Modulator of the N-Methyl-D-aspartate Receptor” (ACS Chemical Neuroscience, 2023).

One data set deals with GluN1/GluN2C (Rattus norvegicus, UniProt P35439+Q00961). Briefly: Two-electrode voltage-clamp recordings, Xenopus laevis oocytes, GluN1/GluN2C. It counts as cell-based. On the set-up: GluN2B (NM_012574.1), GluN2C (NM_012575.3), and GluN2D (NM_022797.2) were provided by; expressed in transfected cells; host or cells: Xenopus laevis oocytes (cRNA injection). The following applies: 100 μM glutamate, 30 μM glycine; for remaining activity at 30 µM: 30 μM test compound, mean ± SEM, read-out: I 30 μM / I control GluN2C; for IC50: read-out: IC50 GluN2C [95% CI]. The protocol:
All target compounds were evaluated for NMDAR antagonism using two-electrode voltage-clamp recordings from Xenopus laevis oocytes coexpressing recombinant GluN1 and GluN2A-D subunits (Table 1).[32],[42],[33] All analogues were assessed as either a racemic (2b, 2e–2r) or diastereomeric (2d) mixture to simplify purification and streamline in vitro analysis. […] Moreover, as illustrated by the significant loss of NMDAR activity observed with nitrile 2e, the DQP allosteric site necessitated an H-bond donor/acceptor relationship at the carboxylate position. […] The loss of NMDAR activity observed with the trifluoro analogue 2j (Table S1) reinforced the necessity for an H-bond donor/acceptor relationship to maintain allosteric binding and established that fluorine substitution alone is ineffective. […] A single methyl substitution of the amide in compound 2q improved selectivity against GluN2A and had similar potency as 2a, whereas dual methyl substitution reduced potency (2r). We expect that this is likely due to the ability of the […] of the amide to accept hydrogen bonds while the amide can readily donate a proton.
Unfertilized Xenopus laevis oocytes were obtained from Ecocyte (Austin, TX), or ovaries were purchased from Xenopus 1 (Dexter, MI) and oocytes prepared as previously described.[42],[47] Two-electrode voltage-clamp recordings were performed on oocytes expressing recombinant rat GluN1/GluN2A, GluN1/GluN2B, GluN1/GluN2C, or GluN1/GluN2D. cDNAs for rat GluN1-1a (referred to as GluN1; NCBI Reference Sequence NM_017010.2), GluN2A (NM_012573.4), GluN2B (NM_012574.1), GluN2C (NM_012575.3), and GluN2D (NM_022797.2) were provided by Dr. S. Heinemann from the Salk Institute, Dr. S. Nakanishi from Kyoto University, and Dr. P. Seeburg from the University of Heidelberg. Oocyte isolation, cRNA synthesis, and cRNA injections were performed as previously described.[32],[33],[47] Briefly, Xenopus laevis oocytes were injected with 5–10 ng of cRNA in RNase-free water with the GluN1:GluN2 ratio ranging from 1:1 to 1:5. Oocytes were incubated at 15–19 °C in Barth’s solution consisting of (in mM) 88 NaCl, 1 KCl, 2.4 NaHCO3, 10 HEPES, 0.82 MgSO4, 0.33 Ca(NO3)2, and 0.41 CaCl2 supplemented with 100 μg/mL gentamycin, 40 μg/mL streptomycin, and 50 μg/mL penicillin. Recordings were performed 2–4 days after injection with extracellular recording solution containing (in mM) 90 NaCl, 1 KCl, 10 HEPES, 0.5 BaCl2, and 0.01 EDTA at pH 7.4 adjusted with NaOH. To prevent a gradual increase in current response over the course of the experiment, some oocytes expressing GluN1/GluN2A were injected with 20–50 nL of 2–50 mM K-BAPTA. Concentration–response curves for test compounds were generated by applying a maximally effective concentration of glutamate (100 μM) and glycine (30 μM), followed by glutamate and glycine with variable concentrations of test compounds up to 30 μM. The test compounds were prepared as 20 mM stock solutions in DMSO and diluted to the final concentration in recording solution. The DMSO content was 0.05–0.5% (v/v). […] Methods for off-target analysis are given in the Supporting Information.
Confidence intervals were determined for the log(IC50). The time course of relaxation during inhibitor application or deactivation following rapid removal of NMDA or glutamate was fitted by the equation [drawing 5] 2

The nature of another data set: Plasma stability, mouse. The class given is in vitro ADME. The following applies: for half-life at 3 μM / remaining at 120 min, 3 µM: male, BALB/C, mouse; for half-life at 3 μM: mouse plasma, incubation up to 120 min, read-out: plasma stability T1/2, mouse; for remaining at 120 min, 3 µM: plasma, over the assay time course. The protocol:
(§1) Human plasma (lithium heparin (LiHep) mixed, gender pooled, 0.2 μm filtered) and mouse plasma (BALB/C, LiHep mixed, male pooled, 0.2 μm filtered) were purchased from BioIVT. Procaine (Sigma-Aldrich) served as a positive control for both human and mouse plasma experiments. Test compounds and positive controls were initially dissolved in DMSO to make 10 mM stock solutions. The solutions of test and control compounds were then further diluted in 70% MeOH/H2O or 100% MeCN to 500 μM. Next, the human or mouse plasma (994 μL) was aliquoted into 1.5 mL Eppendorf tubes with duplicates (reactions A and B) being prepared for each compound. The plasma was then incubated at 37 °C for 10 min. Afterward, the reaction was initiated by the addition of the test compound (6 μL of 500 μM solution) and further incubated at 37 °C for the designated time course of the study. This procedure provided duplicate experiments with a final volume of 1000 μL (<0.6% organic solvent content) and a final test compound concentration of 3 μM. Aliquots (100 μL) were removed from each reaction mixture at 0, 15, 30, 60, and 120 min time intervals and quenched with 150 μL of cold ISTD solution (2 μM 7-ethoxy-d5-coumarin in MeOH or MeCN). Quenched aliquots were then centrifuged at 15,000 g for 30–45 min, and the resulting supernatants (∼70 μL) were withdrawn and placed in LC-MS vials to be analyzed by LC-MS/MS (Agilent G6460C QQQ MS coupled with an Infinity II 1260 HPLC). Each test compound was run in tandem with positive and negative control experiments for quality assurance. The positive control reaction was conducted at a final volume of 1000 μL for a single run at each time point. Finally, the negative control experiment was conducted with test compounds in DPBS (143 μL) and analyzed at the 120 min time point.
(§2) For both LM and plasma assays, each data point was analyzed in triplicate using between blank washes to avoid carry over and to equilibrate the column for the subsequent runs. Averages of these triplicates for individual compounds at each time point were then normalized to the data at 0 min, representing 100% of the test compound remaining or 0% metabolism. Half-lives (t1/2) were calculated by plotting ln of % test compound remaining versus time and performing linear regression to determine slope. Slope = −k and t1/2 = 0.693/k for first-order kinetics (see Figures S5 and S6 for a representative example).

A further data set is described as follows: Plasma stability, human. It counts as in vitro ADME. The following applies: both sexes; for half-life at 3 μM: human plasma, incubation up to 120 min, read-out: plasma stability T1/2, human; for remaining at 120 min, 3 µM: plasma, over the assay time course. The protocol: as §1, §2

Sequence of GluN1/GluN2C (Q00961 20-1237, other chains not shown): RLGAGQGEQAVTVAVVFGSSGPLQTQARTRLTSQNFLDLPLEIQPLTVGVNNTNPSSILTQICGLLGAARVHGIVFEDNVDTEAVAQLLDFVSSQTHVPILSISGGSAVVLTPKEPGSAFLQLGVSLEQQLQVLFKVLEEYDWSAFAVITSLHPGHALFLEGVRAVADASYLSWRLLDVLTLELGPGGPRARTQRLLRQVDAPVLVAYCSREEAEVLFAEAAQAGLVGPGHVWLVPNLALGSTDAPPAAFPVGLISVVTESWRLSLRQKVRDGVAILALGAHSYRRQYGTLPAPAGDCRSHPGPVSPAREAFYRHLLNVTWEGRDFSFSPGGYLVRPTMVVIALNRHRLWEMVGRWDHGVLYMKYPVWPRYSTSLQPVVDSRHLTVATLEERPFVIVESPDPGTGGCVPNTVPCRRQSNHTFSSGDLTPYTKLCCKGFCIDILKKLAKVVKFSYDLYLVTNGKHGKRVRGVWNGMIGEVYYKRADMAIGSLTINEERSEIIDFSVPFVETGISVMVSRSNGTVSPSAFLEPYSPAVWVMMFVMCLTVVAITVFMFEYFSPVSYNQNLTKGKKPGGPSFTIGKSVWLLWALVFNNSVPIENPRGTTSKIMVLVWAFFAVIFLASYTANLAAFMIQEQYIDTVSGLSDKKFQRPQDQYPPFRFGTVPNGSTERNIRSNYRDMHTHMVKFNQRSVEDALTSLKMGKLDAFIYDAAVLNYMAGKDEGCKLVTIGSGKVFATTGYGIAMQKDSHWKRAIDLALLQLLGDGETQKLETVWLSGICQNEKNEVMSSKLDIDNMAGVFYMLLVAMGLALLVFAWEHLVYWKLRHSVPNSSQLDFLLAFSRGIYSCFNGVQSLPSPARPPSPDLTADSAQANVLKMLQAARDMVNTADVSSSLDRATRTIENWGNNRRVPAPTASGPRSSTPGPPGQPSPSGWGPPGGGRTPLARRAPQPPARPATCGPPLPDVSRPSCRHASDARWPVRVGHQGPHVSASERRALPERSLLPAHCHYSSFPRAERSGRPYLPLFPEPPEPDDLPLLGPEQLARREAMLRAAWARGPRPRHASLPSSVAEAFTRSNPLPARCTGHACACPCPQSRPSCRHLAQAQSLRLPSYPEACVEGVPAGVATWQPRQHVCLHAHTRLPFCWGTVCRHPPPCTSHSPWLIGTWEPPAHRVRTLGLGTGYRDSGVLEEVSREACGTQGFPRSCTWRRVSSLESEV

`CC(C)OC(=O)CC(F)(F)C(=O)N1N=C(c2c(-c3ccc(Cl)cc3)c3ccccc3[nH]c2=O)CC1c1ccc(Cl)cc1` (stereo not shown) [2m]: the remaining activity at 30 µM on GluN1/GluN2C came to 90 ± 4.3%. Besides, the half-life at 3 μM in the data set “Plasma stability, mouse” is 0.617 h; in the data set “Plasma stability, human” it was above 2 h.
Turning to `NC(=O)CC(F)(F)C(=O)N1N=C(c2c(-c3ccc(Cl)cc3)c3ccccc3[nH]c2=O)CC1c1ccc(Cl)cc1` (stereo not shown) [2k], the IC50 on GluN1/GluN2C came out at 380 nM. Further, the “metabolized in mouse plasma (% of prodrug)” value in “Plasma stability, mouse” (after 2 h) turned out to be 42%. In addition, the half-life at 3 μM is above 2 h in the data set “Plasma stability, mouse” and above 2 h in “Plasma stability, human”.
Regarding `CNC(=O)CC(F)(F)C(=O)N1N=C(c2c(-c3ccc(Cl)cc3)c3ccccc3[nH]c2=O)CC1c1ccc(Cl)cc1` (stereo not shown) [2q], the IC50 at GluN1/GluN2C is 670 nM. Moreover, the half-life at 3 μM in the data set “Plasma stability, mouse” was above 2 h; in the data set “Plasma stability, human”, above 2 h.
For the compound `O=C(CC(F)(F)C(=O)N1N=C(c2c(-c3ccc(Cl)cc3)c3ccccc3[nH]c2=O)CC1c1ccc(Cl)cc1)OCc1ccccc1` (stereo not shown) [2p], on GluN1/GluN2C, the remaining activity at 30 µM worked out at 98 ± 0.95%. For the same compound, the half-life at 3 μM was 0.0233 h in the data set “Plasma stability, mouse” and above 2 h in “Plasma stability, human”.
As for `O=C(O)CC(F)(F)C(=O)N1N=C(c2c(-c3ccc(Cl)cc3)c3ccccc3[nH]c2=O)C[C@H]1c1ccc(Cl)cc1` [(S)-(−)-2i], the IC50 at GluN1/GluN2C is 61 nM.
For the compound `O=C(CC(F)(F)C(=O)N1N=C(c2c(-c3ccc(Cl)cc3)c3ccccc3[nH]c2=O)CC1c1ccc(Cl)cc1)OCC1CC1` (stereo not shown) [2n], the remaining activity at 30 µM on GluN1/GluN2C was 93 ± 4.2%. Further, the half-life at 3 μM in “Plasma stability, mouse” was 0.0217 h; in the data set “Plasma stability, human” it was above 2 h.
Turning to `O=C(O)CCC(=O)N1N=C(c2c(-c3ccc(Cl)cc3)c3ccccc3[nH]c2=O)CC1c1ccc(Cl)cc1` (stereo not shown) [2a], the half-life at 3 μM in “Plasma stability, mouse” is above 2 h; in “Plasma stability, human” it was above 2 h. Besides, the fraction remaining at 120 min, 3 µM in “Plasma stability, mouse” was above 95%; in the data set “Plasma stability, human”, above 95%.
For the compound `O=C(O)CC(F)(F)C(=O)N1N=C(c2c(-c3ccc(Cl)cc3)c3ccccc3[nH]c2=O)CC1c1ccc(Cl)cc1` (stereo not shown) [2i], the IC50 at GluN1/GluN2C amounted to 350 nM. In “Plasma stability, mouse”, the half-life at 3 μM was above 2 h and the amount remaining at 120 min, 3 µM is above 95%. Besides, in “Plasma stability, human”, the half-life at 3 μM was above 2 h and the share remaining at 120 min, 3 µM is above 95%.
`CCOC(=O)CC(F)(F)C(=O)N1N=C(c2c(-c3ccc(Cl)cc3)c3ccccc3[nH]c2=O)CC1c1ccc(Cl)cc1` (stereo not shown) [2l]: the remaining activity at 30 µM at GluN1/GluN2C was 93 ± 0.7%. Besides, the half-life at 3 μM in the data set “Plasma stability, mouse” was 0.07 h; in “Plasma stability, human”, above 2 h.
Turning to `CN(C)C(=O)CC(F)(F)C(=O)N1N=C(c2c(-c3ccc(Cl)cc3)c3ccccc3[nH]c2=O)CC1c1ccc(Cl)cc1` (stereo not shown) [2r], the IC50 at GluN1/GluN2C was 4100 nM. Further, the half-life at 3 μM in the data set “Plasma stability, mouse” was above 2 h; in “Plasma stability, human”, above 2 h.
On to `CC(C)(C)COC(=O)CC(F)(F)C(=O)N1N=C(c2c(-c3ccc(Cl)cc3)c3ccccc3[nH]c2=O)CC1c1ccc(Cl)cc1` (stereo not shown) [2o], for which the half-life at 3 μM was 0.0667 h in the data set “Plasma stability, mouse” and above 2 h in the data set “Plasma stability, human”.

For orientation: IC50 means the concentration that inhibits the measured activity by half. The term fraction remaining denotes the share of the starting amount still present when the sample was taken. A high value points to greater stability.
